Measured values: US20140193827A1 (TEVA PHARMACEUTICAL INDUSTRIES, LTD., priority 2013, published 2014)

Test system: GA-primed murine splenocytes
Assay: ANOVA-based pattern identification method
Type: cell-based, mouse
Conditions: DOWN IN generic ONLY
Description: We sought to identify probes matching specific patterns of expression across experimental conditions using a technique that referred to as the ANOVA-based Pattern Identification Method.
To carry out the analysis in a general manner, we computed the 6 p-values required to do pairwise comparisons of all 4 conditions for all probes using the ANOVA1 function in MATLAB. We then identified sets of probes matching the desired pattern. In the example above, probes were identified as being only affected by PG if their 6 pairwise comparison pvalues matched the following pattern (pGA-PG<0.05, pPG-reference standard<0.05, pPG-Medium<0.05, pGAMedium>0.05, pGA-reference standard>0.05, preference standard-Medium>0.05).

Question: For glatiramer acetate [GA], which GFRA3 expression level is on record?
Answer: 5.616

Question: What about the GJA7 expression level of the same substance?
Answer: 5.868

Question: What about the GM362 expression level of the same substance?
Answer: 5.639

Question: And the HEATR5A expression level?
Answer: 5.695

Question: And the “IGHVS515—AF290966_IG_HEAVY—VARIABLE_5515_49 expression level” value?
Answer: 5.952

Question: And the LOC235971 expression level?
Answer: 5.505

Question: What about the LOC277422 expression level of the same substance?
Answer: 5.729

Question: And the LOC382760 expression level?
Answer: 5.651

Question: And the LOC382783 expression level?
Answer: 5.536

Question: What about the LOC383612 expression level of the same substance?
Answer: 5.569

Question: What about the LOC383940 expression level of the same substance?
Answer: 5.805

Question: And the LOC384215 expression level?
Answer: 5.829

Question: And the LOC384513 expression level?
Answer: 5.705

Question: What about the LOC385059 expression level of the same substance?
Answer: 5.539

Question: What about the LOC385626 expression level of the same substance?
Answer: 6.046

Question: What about the LOC620009 expression level of the same substance?
Answer: 5.619

Question: What about the LOC676672 expression level of the same substance?
Answer: 5.825

Question: And the LOC100043389 expression level?
Answer: 5.675

Question: And the LTBP1 expression level?
Answer: 5.694

Question: And the NEUROD4 expression level?
Answer: 5.671

Question: What about the NFAT5 expression level of the same substance?
Answer: 5.815

Question: What about the OA1 expression level of the same substance?
Answer: 5.552

Question: And the OLFR750 expression level?
Answer: 5.646

Question: And the OLFR1085 expression level?
Answer: 5.642

Question: What about the OLFR1158 expression level of the same substance?
Answer: 5.912

Question: What about the OLFR1180 expression level of the same substance?
Answer: 5.658

Question: What about the OLFR1230 expression level of the same substance?
Answer: 5.655

Question: What about the OSBPL6 expression level of the same substance?
Answer: 5.8511

Question: What about the PCDHGA8 expression level of the same substance?
Answer: 5.782

Question: What about the PIK3R4 expression level of the same substance?
Answer: 5.881

Question: And the PPP1R14D expression level?
Answer: 5.611

Question: What about the PTCHD2 expression level of the same substance?
Answer: 5.831

Question: What about the RARRES1 expression level of the same substance?
Answer: 5.601

Question: What about the RNF207 expression level of the same substance?
Answer: 5.863

Question: What about the RPL10A expression level of the same substance?
Answer: 14.66

Question: What about the RTN2 expression level of the same substance?
Answer: 5.939

Question: What about the SCL0070954.1_214 expression level of the same substance?
Answer: 5.822

Question: And the SERPINB3D expression level?
Answer: 5.741

Question: What about the SMARCA2 expression level of the same substance?
Answer: 5.616

Question: And the TMEM219 expression level?
Answer: 6.158

Question: What about the TRPC6 expression level of the same substance?
Answer: 5.632

Question: What about the UTX expression level of the same substance?
Answer: 5.7

Question: And the control_ILMN_1378571 expression level?
Answer: 5.812

Question: And the control_ILMN_1378664 expression level?
Answer: 5.743

Question: And the control_ILMN_1379333 expression level?
Answer: 5.62

Question: What about the 1110032A03RIK expression (group mean) of the same substance?
Answer: 5.853

Question: What about the 1600012H06RIK expression (group mean) of the same substance?
Answer: 7.313

Question: What about the 1600029O10RIK expression (group mean) of the same substance?
Answer: 7.692

Question: And the 1600032L17RIK expression (group mean)?
Answer: 6.091

Question: What about the 1700006H02RIK expression (group mean) of the same substance?
Answer: 5.861

Question: And the 1700011H14RIK expression (group mean)?
Answer: 5.738

Question: And the 1700016G05RIK expression (group mean)?
Answer: 5.78

Question: And the 1700016L04RIK expression (group mean)?
Answer: 5.693

Question: What about the 1700045I19RIK expression (group mean) of the same substance?
Answer: 5.885

Question: And the 1700073E17RIK expression (group mean)?
Answer: 5.629

Question: And the 1700112H15RIK expression (group mean)?
Answer: 5.628

Question: And the 1810005K13RIK expression (group mean)?
Answer: 5.74

Question: And the 1810007M14RIK expression (group mean)?
Answer: 6.86

Question: And the 2210008F06RIK expression (group mean)?
Answer: 5.65

Question: What about the 2210018M11RIK expression (group mean) of the same substance?
Answer: 6.603

Question: What about the 2310016E02RIK expression (group mean) of the same substance?
Answer: 5.742

Question: And the 2510049I19RIK expression (group mean)?
Answer: 6.311

Question: And the 2600011C06RIK expression (group mean)?
Answer: 6.286

Question: What about the 2810402E24RIK expression (group mean) of the same substance?
Answer: 6.296

Question: What about the 4733401O04RIK expression (group mean) of the same substance?
Answer: 6.449

Question: And the 4833420G17RIK expression (group mean)?
Answer: 6.181

Question: And the 4921505C17RIK expression (group mean)?
Answer: 6.382

Question: What about the 4921506J03RIK expression (group mean) of the same substance?
Answer: 9.893

Question: And the 4921506M07RIK expression (group mean)?
Answer: 5.749

Question: And the 4922502D21RIK expression (group mean)?
Answer: 5.774

Question: And the 4930449I04RIK expression (group mean)?
Answer: 5.894

Question: What about the 4930524L23RIK expression (group mean) of the same substance?
Answer: 5.492

Question: And the 5830411J07RIK expression (group mean)?
Answer: 5.837

Question: And the 5830415L20RIK expression (group mean)?
Answer: 7.797

Question: What about the 5830472H07RIK expression (group mean) of the same substance?
Answer: 6.24

Question: What about the 6030408K21RIK expression (group mean) of the same substance?
Answer: 5.64

Question: And the 9030003C19RIK expression (group mean)?
Answer: 6.271

Question: And the 9130601C02RIK expression (group mean)?
Answer: 5.724

Question: What about the 9330133O14RIK expression (group mean) of the same substance?
Answer: 6.205

Question: What about the 9330171B01RIK expression (group mean) of the same substance?
Answer: 5.814

Question: What about the 9530013H16R1K expression (group mean) of the same substance?
Answer: 5.782

Question: What about the 9530053H22 expression (group mean) of the same substance?
Answer: 5.531

Question: What about the 9830118G07RIK expression (group mean) of the same substance?
Answer: 6.53

Question: And the 9930021J03RIK expression (group mean)?
Answer: 5.61

Question: And the 6030408816RIK expression (group mean)?
Answer: 6.231

Question: What about the A130003P22RIK expression (group mean) of the same substance?
Answer: 6.043

Question: And the A130027D22RIK expression (group mean)?
Answer: 6.184

Question: And the A630040J04RIK expression (group mean)?
Answer: 5.997

Question: What about the A630057J21RIK expression (group mean) of the same substance?
Answer: 5.71

Question: And the A730082L10RIK expression (group mean)?
Answer: 6.255

Question: What about the A930008A22RIK expression (group mean) of the same substance?
Answer: 8.393

Question: What about the A930025D01RIK expression (group mean) of the same substance?
Answer: 6.43

Question: What about the ADRA1B expression (group mean) of the same substance?
Answer: 5.76

Question: What about the AFMID expression (group mean) of the same substance?
Answer: 6.226

Question: And the AGPAT5 expression (group mean)?
Answer: 5.926

Question: What about the AGT expression (group mean) of the same substance?
Answer: 5.634

Question: And the APOM expression (group mean)?
Answer: 6.071

Question: And the ARHGAP12 expression (group mean)?
Answer: 5.654

Question: What about the ASH1L expression (group mean) of the same substance?
Answer: 5.947

Question: What about the ATG12 expression (group mean) of the same substance?
Answer: 8.962

Question: And the ATL1 expression (group mean)?
Answer: 5.666

Question: What about the AW822252 expression (group mean) of the same substance?
Answer: 5.749

Question: And the B230120H23RIK expression (group mean)?
Answer: 5.612

Question: And the B230216G23RIK expression (group mean)?
Answer: 5.625

Question: And the B930071N01RIK expression (group mean)?
Answer: 5.764

Question: What about the BC003331 expression (group mean) of the same substance?
Answer: 7.368

Question: And the BC016608 expression (group mean)?
Answer: 5.838

Question: And the BC057371 expression (group mean)?
Answer: 5.752

Question: And the BCL10 expression (group mean)?
Answer: 6.261

Question: What about the BCL11B expression (group mean) of the same substance?
Answer: 6.506

Question: What about the BCORL1 expression (group mean) of the same substance?
Answer: 6.102

Question: What about the BHLHB3 expression (group mean) of the same substance?
Answer: 5.621

Question: What about the BIRC6 expression (group mean) of the same substance?
Answer: 6.264

Question: And the BMPR1B expression (group mean)?
Answer: 5.732

Question: What about the C030004B10RIK expression (group mean) of the same substance?
Answer: 5.708

Question: What about the C77370 expression (group mean) of the same substance?
Answer: 5.694

Question: And the C87414 expression (group mean)?
Answer: 5.972

Question: And the C130039E17RIK expression (group mean)?
Answer: 5.729

Question: What about the C130064E22RIK expression (group mean) of the same substance?
Answer: 7.411

Question: What about the C130072C03RIK expression (group mean) of the same substance?
Answer: 6.075

Question: What about the C130075H21RIK expression (group mean) of the same substance?
Answer: 5.869

Question: And the C130078D09RIK expression (group mean)?
Answer: 6.02

Question: What about the C330011J12RIK expression (group mean) of the same substance?
Answer: 5.722

Question: What about the CALCRL expression (group mean) of the same substance?
Answer: 5.569

Question: And the CCDC104 expression (group mean)?
Answer: 5.832

Question: And the CDH23 expression (group mean)?
Answer: 5.945

Question: And the CDKN1B expression (group mean)?
Answer: 6.29
